In patent US12643887B2, “Heterocyclic derivatives with cardiomyocyte proliferation activity for treatment of heart diseases” (Tongji University, priority 2019, dated 2026):

What was measured:
[1] = target: T1, human HIPK2 (Homo sapiens, UniProt Q9H2X6); assay: HIPK2 enzyme assay (ADP-Glo); assay type: biochemical; conditions: ADP-Glo, ATP 5 μM; read-out: HIPK2 IC50
T1 construct: Recombinant human HIPK2 (1-640); GST (N); purchased SignalChem H04-11BG; host or cells: Sf9 insect cells
Description: The ability of compounds to inhibit human HIPK2 kinase activities was determined using a commercially available ADP-Glo™ Kinase Assay kit (Promega, Cat #V9102) according to the manufacturer's protocol.
(§1) Recombinant human HIPK2 (1-640) (expressed in Sf9 insect cells with an N-terminal GST tag) was purchased from SignalChem (Cat #H04-11BG). Recombinant full length human MBP (expressed in E. Coli cells with an N-terminal GST tag) was purchased from SignalChem (Cat #M42-54G). This assay, run in a 384-well plate format, is a generic method for measuring kinase activities using an ADP-Glo Kinase Assay Kit. The basic assay procedure involves two steps: (1) Enzymatic step: inhibitors are incubated with the kinase and then ATP (included in the ADP-Glo Kinase Assay Kit) and the MBP protein are added to start the enzymatic reaction; (2) Detection step: after the kinase reaction, first ADP-Glo™ Reagent is added to terminate the kinase reaction and deplete the remaining ATP. Second, the Kinase Detection Reagent is added to simultaneously convert ADP to ATP and allow the newly synthesized ATP to be measured using a luciferase/luciferin reaction. The light generated is measured using a luminometer.
(§2) Briefly, HIPK2 (1 nM) in the enzymatic buffer solutions (40 mM Tris, pH 7.5, 20 mM MgCl2, 0.1 mg/ml BSA, 50 μM DTT) were mixed with various concentrations of inhibitors (dissolved in 100% DMSO). These solutions were incubated for 30 minutes at 25° C., and subsequently a mixture of substrate peptide and ATP was added with the final peptide and ATP concentrations at 0.05 mg/ml and 5 μM, respectively. The final reaction mixture of enzyme-substrate-ATP-compound was incubated for 90 minutes at 25° C.
(§3) Afterwards ADP-Glo™ Reagent was added and the mixture was incubated at 25° C. for 60 minutes. Then Kinase Detection Reagent was added, and the final mixture was incubated at 25° C. for 60 minutes. The luminescence signal of the final solution was measured on an Envision instrument (PerkinElmer). The percent (%) inhibition at each concentration of a compound is calculated relative to the luminescence signal in the Max and Min control wells contained within each assay plate. […] The concentrations and percent inhibition values for a test compound are plotted and the concentration of the compound required to achieve 50% inhibition (IC50) is determined with a four-parameter logistic dose response equation.

[2] = target: T2, human GSK3 beta (Homo sapiens, UniProt P49841); assay: GSK3 beta enzyme assay (ADP-Glo); assay type: biochemical; conditions: ATP 25 μM, read-out: GSK3b IC50
T2 construct: Recombinant full-length human GSK3 beta (expressed in Sf9 insect cells with an N-terminal His tag); His (N); purchased SignalChem G09-10H; host or cells: Sf9 insect cells
Description: 1. GSK3 Beta Enzyme Assay
The ability of compounds to inhibit human GSK3 beta kinase activities was determined using a commercially available ADP-Glo™ Kinase Assay kit (Promega, Cat #V9102) according to the manufacturer's protocol. The ADP-Glo™ Kinase Assay is a luminescent ADP detection assay that provides a universal, homogeneous, high-throughput screening method to measure kinase activity by quantifying the amount of ADP produced during a kinase reaction. The ADP-Glo™ Kinase Assay can be used to monitor the activity of virtually any ADP-generating enzymes (e.g., kinases or ATPases).
as §1, with “Recombinant full-length” for “Recombinant”, “GSK3 beta” for “HIPK2 (1-640)”, “His” for “GST”, “#G09-10H). The GSK3 substrate peptide (sequence: […](pS)EDEEE)” for “#H04-11BG). Recombinant full length human MBP (expressed in E. Coli cells with an N-terminal GST tag)”, “#G50-58).” for “#M42-54G).”, “GSK3 substrate peptide” for “MBP protein”
as §2, with “Briefly, GSK3 beta (4” for “Briefly, HIPK2 (1”, “at 13 μM” for “at 0.05 mg/ml”, “and 25” for “and 5”, “for 60” for “for 90”
as §3, with “added” for “added,”

T1 sequence (Q9H2X6 1-640): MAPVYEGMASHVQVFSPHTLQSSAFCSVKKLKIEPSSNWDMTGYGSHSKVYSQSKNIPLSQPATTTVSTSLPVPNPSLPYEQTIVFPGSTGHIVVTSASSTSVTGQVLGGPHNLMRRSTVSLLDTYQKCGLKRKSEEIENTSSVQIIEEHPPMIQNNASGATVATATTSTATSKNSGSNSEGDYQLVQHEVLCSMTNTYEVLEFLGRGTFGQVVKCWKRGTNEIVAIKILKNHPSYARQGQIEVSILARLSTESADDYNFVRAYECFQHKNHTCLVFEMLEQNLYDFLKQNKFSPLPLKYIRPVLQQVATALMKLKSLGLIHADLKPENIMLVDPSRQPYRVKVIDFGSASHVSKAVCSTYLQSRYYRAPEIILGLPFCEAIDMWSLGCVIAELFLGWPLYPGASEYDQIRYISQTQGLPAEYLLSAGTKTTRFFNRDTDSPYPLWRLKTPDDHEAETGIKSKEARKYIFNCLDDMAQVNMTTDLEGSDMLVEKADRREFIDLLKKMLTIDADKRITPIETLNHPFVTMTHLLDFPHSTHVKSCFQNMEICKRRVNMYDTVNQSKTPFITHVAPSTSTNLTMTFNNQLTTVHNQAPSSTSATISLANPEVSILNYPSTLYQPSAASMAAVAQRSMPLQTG
T2 sequence (P49841 whole entry): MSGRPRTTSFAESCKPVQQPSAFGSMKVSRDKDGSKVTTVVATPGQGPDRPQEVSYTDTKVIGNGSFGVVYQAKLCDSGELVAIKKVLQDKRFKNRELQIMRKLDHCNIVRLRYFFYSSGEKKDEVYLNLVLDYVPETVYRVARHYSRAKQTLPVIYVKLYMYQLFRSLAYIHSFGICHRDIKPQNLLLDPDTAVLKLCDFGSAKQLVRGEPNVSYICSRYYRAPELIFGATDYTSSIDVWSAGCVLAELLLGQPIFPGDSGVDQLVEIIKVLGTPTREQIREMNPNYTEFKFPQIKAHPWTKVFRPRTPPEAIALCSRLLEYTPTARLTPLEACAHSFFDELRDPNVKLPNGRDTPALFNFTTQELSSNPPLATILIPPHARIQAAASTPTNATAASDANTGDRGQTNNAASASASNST

SMILES | IC50 [1] | IC50 [2]
O=C1NC(N(CC2CC2)c2ccccc2)=N/C1=C\c1ccc2c(c1)OCO2 [Example 10, (Z)-5-(benzo[d][1,3]dioxol-5-ylmethylene)-2-((cyclopropylmethyl)(phenyl)amino)-3,5-dihydro-4H-imidazol-4-one] | > 10 µM | > 10 µM
CN(C1=N/C(=C\c2ccc3c(c2)OCO3)C(=O)N1)c1cccnc1 [Example 18, (Z)-5-(benzo[d][1,3]dioxol-5-ylmethylene)-2-(methyl(pyridin-3-yl)amino)-3,5-dihydro-4H-imidazol-4-one] | > 10 µM | > 10 µM
O=C1NC(Nc2ccccc2)=N/C1=C\c1ccc2occc2c1 [Example 52, (Z)-5-(benzofuran-5-ylmethylene)-2-(phenylamino)-3,5-dihydro-4H-imidazol-4-one] | > 10 µM | > 10 µM
Cn1cnc2ccc(/C=C3\N=C(Nc4ccccc4)NC3=O)cc21 [Example 46, (Z)-5-((1-methyl-1H-benzo[d]imidazol-6-yl)methylene)-2-(phenylamino)-3,5-dihydro-4H-imidazol-4-one] | 0.1 to 1 µM | 0.1 to 1 µM
O=C1NC(N(Cc2ccccc2)c2ccccc2)=N/C1=C\c1ccc2c(c1)OCO2 [Example 22, (Z)-5-(benzo[d][1,3]dioxol-5-ylmethylene)-2-(benzyl(phenyl)amino)-3,5-dihydro-4H-imidazol-4-one] | > 10 µM | > 10 µM
COc1ccc(NC2=N/C(=C\c3ccc4ncsc4c3)C(=O)N2)cc1 [Example 25, (Z)-5-(benzo[d]thiazol-6-ylmethylene)-2-((4-methoxyphenyl)amino)-3,5-dihydro-4H-imidazol-4-one] | 0.1 to 1 µM | > 10 µM
O=C1NC(Nc2ccccc2)=N/C1=C\c1ccc2ncccc2c1 [Example 53, (Z)-2-(phenylamino)-5-(quinolin-6-ylmethylene)-3,5-dihydro-4H-imidazol-4-one] | 0.1 to 1 µM | > 10 µM
O=C1NC(Nc2ccccc2)=N/C1=C\c1ccc2[nH]ncc2c1 [Example 55, (Z)-5-((1H-indazol-5-yl)methylene)-2-(phenylamino)-3,5-dihydro-4H-imidazol-4-one] | 0.1 to 1 µM | 0.1 to 1 µM
CN(CC1CC1)C1=N/C(=C\c2ccc3c(c2)OCO3)C(=O)N1 [Example 11, (Z)-5-(benzo[d][1,3]dioxol-5-ylmethylene)-2-((cyclopropylmethyl)(methyl)amino)-3,5-dihydro-4H-imidazol-4-one] | > 10 µM | > 10 µM
O=C1NC(Nc2ccccc2)=N/C1=C\c1ccc2[nH]cnc2c1 [Example 26, (Z)-5-((1H-benzo[d]imidazol-5-yl)methylene)-2-(phenylamino)-3,5-dihydro-4H-imidazol-4-one] | 0.1 to 1 µM | 0.1 to 1 µM
CN(Cc1ccccc1)C1=N/C(=C\c2ccc3c(c2)OCO3)C(=O)N1 [Example 23, (Z)-5-(benzo[d][1,3]dioxol-5-ylmethylene)-2-(benzyl(methyl)amino)-3,5-dihydro-4H-imidazol-4-one] | > 10 µM | > 10 µM

Results, then the compound that gave them:

IC50 [1] | IC50 [2] | SMILES
> 10 µM | 1 to 10 µM | CN(CCN1CCOCC1)C1=N/C(=C\c2ccc3ncsc3c2)C(=O)N1 [Example 32, (Z)-5-(benzo[d]thiazol-6-ylmethylene)-2-(methyl(2-morpholinoethyl)amino)-3,5-dihydro-4H-imidazol-4-one]
0.1 to 1 µM | > 10 µM | O=C1NC(Nc2ccc3ncsc3c2)=N/C1=C\c1ccc2scnc2c1 [Example 57, (Z)-5-(benzo[d]thiazol-5-ylmethylene)-2-(benzo[d]thiazol-6-ylamino)-3,5-dihydro-4H-imidazol-4-one]
1 to 10 µM | 1 to 10 µM | CN(Cc1ccccc1)C1=N/C(=C\c2ccc3ncsc3c2)C(=O)N1 [Example 28, (Z)-5-(benzo[d]thiazol-6-ylmethylene)-2-(benzyl(methyl)amino)-3,5-dihydro-4H-imidazol-4-one]
0.1 to 1 µM | 1 to 10 µM | NC1=N/C(=C\c2ccc3ncsc3c2)C(=O)N1 [Example 103, (Z)-2-amino-5-(benzo[d]thiazol-6-ylmethylene)-3,5-dihydro-4H-imidazol-4-one]
0.1 to 1 µM | > 10 µM | O=C1NC(Nc2ccc3ncsc3c2)=NC1Cc1ccc2ncsc2c1 (stereo not shown) [Example 102, 2-(benzo[d]thiazol-6-ylamino)-5-(benzo[d]thiazol-6-ylmethyl)-3,5-dihydro-4H-imidazol-4-one]
> 10 µM | > 10 µM | O=C1NC(Nc2ccc3ncsc3c2)=N/C1=C\c1ccc2cc[nH]c2c1 [Example 63, (Z)-5-((1H-indol-6-yl)methylene)-2-(benzo[d]thiazol-6-ylamino)-3,5-dihydro-4H-imidazol-4-one]
1 to 10 µM | > 10 µM | O=C1NC(Nc2ccc(Cl)cc2)=N/C1=C\c1ccc2ncsc2c1 [Example 40, (Z)-5-(benzo[d]thiazol-6-ylmethylene)-2-((4-chlorophenyl)amino)-3,5-dihydro-4H-imidazol-4-one]
> 10 µM | > 10 µM | O=C1NC(Nc2ccccc2)=N/C1=C\c1ccc2cc[nH]c2c1 [Example 73, (Z)-5-((1H-indol-6-yl)methylene)-2-(phenylamino)-3,5-dihydro-4H-imidazol-4-one]
0.1 to 1 µM | 0.1 to 1 µM | O=C1NC(Nc2ccc3ncsc3c2)=N/C1=C\c1ccc2nc[nH]c2c1 [Example 76, (Z)-5-((1H-benzo[d]imidazol-6-yl)methylene)-2-(benzo[d]thiazol-6-ylamino)-3,5-dihydro-4H-imidazol-4-one]
> 10 µM | > 10 µM | Cn1cnc2cc(/C=C3\N=C(Nc4ccccc4)NC3=O)ccc21 [Example 71, (Z)-5-((1-methyl-1H-benzo[d]imidazol-5-yl)methylene)-2-(phenylamino)-3,5-dihydro-4H-imidazol-4-one]
1 to 10 µM | > 10 µM | O=C1NC(Nc2ccc3nc(Nc4ccccc4)sc3c2)=N/C1=C\c1ccc2ncsc2c1 [Example 104, (Z)-5-(benzo[d]thiazol-6-ylmethylene)-2-((2-(phenylamino)benzo[d]thiazol-6-yl)amino)-3,5-dihydro-4H-imidazol-4-one]
> 10 µM | > 10 µM | CN(C1=N/C(=C\c2ccc3c(c2)OCO3)C(=O)N1)c1ccc2ncsc2c1 [Example 70, (Z)-5-(benzo[d][1,3]dioxol-5-ylmethylene)-2-(benzo[d]thiazol-6-yl(methyl)amino)-3,5-dihydro-4H-imidazol-4-one]
